{"source": "patent US20250186461A1", "about": "“METHODS AND COMPOSITIONS FOR TREATING AND/OR PREVENTING HERNIAS” (Northwestern University, priority 2023, published 2025)", "key": {"[1]": {"system": "LAM primary fibroblasts from Arom^hum mice", "experiment": "mRNA levels of P4/PGR-responsive and fibrotic genes in LAM primary fibroblasts", "assay_type": "cell-based, mouse"}, "[2]": {"system": "LAM fibroblasts from Arom^hum mice", "experiment": "Click-iT EdU proliferation assay", "assay_type": "cell-based, mouse", "conditions": "1 μM antagonist; E2 (10 nM)+R5020 (100 nM)"}, "PGR": {"target": "T1, PGR (Homo sapiens, UniProt P06401)", "T1 sequence (P06401 1-933)": "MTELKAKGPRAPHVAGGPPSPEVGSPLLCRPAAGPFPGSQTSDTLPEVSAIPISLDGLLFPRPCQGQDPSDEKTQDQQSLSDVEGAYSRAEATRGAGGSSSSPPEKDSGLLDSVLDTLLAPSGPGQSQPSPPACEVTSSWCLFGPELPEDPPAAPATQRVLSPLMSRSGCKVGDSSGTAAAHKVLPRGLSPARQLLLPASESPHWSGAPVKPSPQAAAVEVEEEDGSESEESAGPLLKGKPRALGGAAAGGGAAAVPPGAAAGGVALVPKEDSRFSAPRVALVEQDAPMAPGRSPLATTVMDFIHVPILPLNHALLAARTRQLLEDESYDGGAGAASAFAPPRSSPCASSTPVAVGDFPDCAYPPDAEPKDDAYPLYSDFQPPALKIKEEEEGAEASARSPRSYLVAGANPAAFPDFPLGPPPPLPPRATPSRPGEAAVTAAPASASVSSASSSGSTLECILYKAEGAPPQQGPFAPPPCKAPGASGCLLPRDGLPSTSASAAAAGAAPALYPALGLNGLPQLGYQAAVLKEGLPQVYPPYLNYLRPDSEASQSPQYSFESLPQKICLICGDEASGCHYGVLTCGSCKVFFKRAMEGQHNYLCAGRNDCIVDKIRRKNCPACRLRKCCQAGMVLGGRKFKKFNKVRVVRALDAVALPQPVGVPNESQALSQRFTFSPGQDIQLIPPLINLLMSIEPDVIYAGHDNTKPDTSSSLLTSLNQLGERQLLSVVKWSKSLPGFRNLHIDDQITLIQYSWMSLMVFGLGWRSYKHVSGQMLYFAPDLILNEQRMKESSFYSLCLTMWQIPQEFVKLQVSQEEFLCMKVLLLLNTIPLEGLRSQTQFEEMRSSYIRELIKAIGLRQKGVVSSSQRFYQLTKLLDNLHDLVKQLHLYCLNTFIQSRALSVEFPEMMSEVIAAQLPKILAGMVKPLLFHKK", "conditions": "cited from earlier work"}, "aromatase enzyme": {"target": "T2, aromatase enzyme (Homo sapiens, UniProt P11511)", "T2 sequence (P11511 1-503)": "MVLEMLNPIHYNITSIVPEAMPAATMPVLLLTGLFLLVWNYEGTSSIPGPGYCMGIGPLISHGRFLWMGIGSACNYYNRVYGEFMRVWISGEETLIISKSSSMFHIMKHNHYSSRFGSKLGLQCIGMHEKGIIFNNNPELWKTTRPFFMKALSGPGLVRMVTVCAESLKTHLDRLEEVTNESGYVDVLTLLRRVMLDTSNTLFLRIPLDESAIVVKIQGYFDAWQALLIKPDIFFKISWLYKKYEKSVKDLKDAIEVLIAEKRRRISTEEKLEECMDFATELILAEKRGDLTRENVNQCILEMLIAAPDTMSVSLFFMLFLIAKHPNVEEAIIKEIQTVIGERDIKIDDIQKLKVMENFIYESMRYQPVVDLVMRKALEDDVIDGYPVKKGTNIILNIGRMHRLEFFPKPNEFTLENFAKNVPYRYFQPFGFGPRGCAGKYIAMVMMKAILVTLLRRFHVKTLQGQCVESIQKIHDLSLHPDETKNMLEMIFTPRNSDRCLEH", "conditions": "cited from earlier work"}, "[3]": {"conditions": "long-term use; cited from earlier work"}, "[4]": {"target": "T3, glucocorticoid receptor (GR) (Homo sapiens, UniProt P04150)", "T3 sequence (P04150 1-777)": "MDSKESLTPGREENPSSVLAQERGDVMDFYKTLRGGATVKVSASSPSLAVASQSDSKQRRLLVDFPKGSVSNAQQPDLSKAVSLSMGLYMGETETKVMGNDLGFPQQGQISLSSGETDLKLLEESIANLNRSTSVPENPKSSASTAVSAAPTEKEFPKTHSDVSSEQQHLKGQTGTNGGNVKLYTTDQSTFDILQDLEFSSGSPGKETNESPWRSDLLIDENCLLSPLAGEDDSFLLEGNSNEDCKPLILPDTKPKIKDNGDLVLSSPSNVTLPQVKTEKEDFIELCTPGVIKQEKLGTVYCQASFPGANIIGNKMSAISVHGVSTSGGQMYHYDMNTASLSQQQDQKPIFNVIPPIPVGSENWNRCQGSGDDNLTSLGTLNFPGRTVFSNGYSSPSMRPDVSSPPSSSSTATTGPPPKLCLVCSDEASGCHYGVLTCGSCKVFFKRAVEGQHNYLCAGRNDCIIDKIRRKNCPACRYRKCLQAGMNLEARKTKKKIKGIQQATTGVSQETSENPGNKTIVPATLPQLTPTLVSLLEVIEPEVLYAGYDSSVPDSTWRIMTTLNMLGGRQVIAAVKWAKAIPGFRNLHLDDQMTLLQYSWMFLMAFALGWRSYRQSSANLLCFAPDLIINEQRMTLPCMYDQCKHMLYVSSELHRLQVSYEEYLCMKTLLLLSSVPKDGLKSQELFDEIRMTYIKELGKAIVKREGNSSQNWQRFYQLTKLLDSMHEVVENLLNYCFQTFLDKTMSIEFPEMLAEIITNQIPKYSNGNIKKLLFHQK", "conditions": "cited from earlier work"}}, "note": "Entries after “also recorded” stand apart in the source; their conditions may differ."}
{"smiles": "CN(C)c1ccc([C@H]2C[C@]3(C)[C@@H](CC[C@]3(O)CCCO)[C@@H]3CCC4=CC(=O)CCC4=C32)cc1", "note": "[ZK299, Onapristone]", "values": [{"measurement": "E2+R5020-induced expression of P4/PGR-responsive (Greb1, Cyp7b1) and fibrotic genes (Adamtsl1, Col1a1, Col14a1)", "setting": "[1]; 1 μM antagonist, pretreated 2 h before E2 (10 nM)+R5020 (100 nM)", "result": "significantly decreased; also recorded: strongest inhibition"}, {"measurement": "E2+R5020-stimulated expression of Col1a1 and Col12a1, blockade", "setting": "[1]; pretreatment with 1 μM antagonist", "result": "blocked"}, {"measurement": "inhibition of E2+R5020-stimulated LAM fibroblast proliferation", "setting": "[2]", "result": "inhibited; also recorded: blocked"}, {"measurement": "P4/PGR antagonism and PGR selectivity", "setting": "PGR", "result": "highly PGR-selective pure P4 antagonist"}, {"measurement": "inhibition of aromatase enzyme activity", "setting": "aromatase enzyme", "result": "weak aromatase inhibitor"}, {"measurement": "liver toxicity", "setting": "[3]", "result": "significant liver toxicity"}, {"measurement": "anti-glucocorticoid activity", "setting": "[4]", "result": "minimal or no antiglucocorticoid properties"}]}
